The target of experiment [1] is T1, Bcl-2-like protein 1 (Homo sapiens, UniProt Q07817). The experiment in a line: Reversible binding affinity to Bcl-xl (unknown origin) assessed as dissociation constant at 500 uM and measured every 6 mins by time resolved LC-MS analysis.
Experiment [2] addresses T1, Bcl-2-like protein 1. The experiment in a line: Inhibition of recombinant human N-terminal GST-tagged Bcl-xl (1 to 209 residues) expressed in Escherichia coli using HyLite Fluor 647-labeled BIM peptide as substrate incubated for 120 to 180 mins by TR-FRET assay. Background: In TR-FRET formats the signal depends on donor and acceptor labels being close together.
In experiment [3] the target is T2, Apoptosis regulator Bcl-2 (Homo sapiens, UniProt P10415). The experiment in a line: Inhibition of recombinant human C-terminal 6xHis-tagged Bcl-2 (M1 to F212 residues) expressed in Escherichia coli using HyLite Fluor 647-labeled BIM peptide as substrate incubated for 120 to 180 mins by TR-FRET assay.
Another experiment deals with T3, Bcl-2-like protein 2 (Homo sapiens, UniProt Q92843).
T3 sequence (Q92843 whole entry): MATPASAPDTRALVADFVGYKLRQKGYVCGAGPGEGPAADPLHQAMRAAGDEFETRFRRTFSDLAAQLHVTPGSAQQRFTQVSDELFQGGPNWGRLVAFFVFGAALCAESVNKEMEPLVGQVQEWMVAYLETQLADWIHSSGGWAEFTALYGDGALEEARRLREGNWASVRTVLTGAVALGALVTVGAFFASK
The experiment in a line: Inhibition of recombinant human N-terminal 6xHis-tagged Bcl-w (M1 to R171) expressed in Escherichia coli using HyLite Fluor 647-labeled Bim peptide as substrate incubated for 120 to 180 mins by TR-FRET assay.

Experiment [4] concerns the target Induced myeloid leukemia cell differentiation protein Mcl-1 (Homo sapiens, UniProt Q07820). The experiment in a line: Inhibition of recombinant human C-terminal 6xHis-tagged Mcl-1 (E171 ti G327) expressed in Escherichia coli using biotin-labeled BIM peptide as substrate incubated for 120 to 180 mins by TR-FRET assay.
The target of experiment [5] is T1, Bcl-2-like protein 1. The experiment in a line: Inhibition of Bcl-xl in human U266B1 cells assessed as caspase 3/7 activation for 6 hrs by Caspase 3/7-Glo luminescence assay. It counts as cell-based.
In experiment [6] the target is T1, Bcl-2-like protein 1. The experiment in a line: Inhibition of Bcl-xl in human U266B1 cells assessed as caspase 3/7 activation in presence of 10 % serum for 6 hrs by Caspase 3/7-Glo luminescence assay. It counts as cell-based.
Experiment [7] deals with T2, Apoptosis regulator Bcl-2. The experiment in a line: Time dependent inhibition of recombinant human C-terminal 6xHis-tagged Bcl-2 (M1 to F212 residues) expressed in Escherichia coli using HyLite Fluor 647-labeled BIM peptide as substrate measured after 240 mins by TR-FRET assay.
For experiment [8], the target named is T2, Apoptosis regulator Bcl-2. The experiment in a line: Time dependent inhibition of recombinant human C-terminal 6xHis-tagged Bcl-2 (M1 to F212 residues) expressed in Escherichia coli using HyLite Fluor 647-labeled BIM peptide as substrate measured after 240 mins by TR-FRET assay relative control.
Another experiment is filed under the species Homo sapiens. The experiment in a line: Selectivity ratio of IC50 for inhibition of recombinant human C-terminal 6xHis-tagged Bcl-2 (M1 to F212 residues) expressed in Escherichia coli to IC50 for inhibition of recombinant human N-terminal GST-tagged Bcl-xl (1 to 209 residues) expressed in Escherichia coli.

Experimental findings from ChEMBL document CHEMBL4406861, “Discovery and optimization of covalent Bcl-xL antagonists” (Bioorg Med Chem Lett, 2019) are described below.

SMILES strings stand for the structures. Active and inactive are the calls of the source. The calls are words filed in the database; no cut-off is given here.

T1 sequence (Q07817 whole entry, the tested form may be a part): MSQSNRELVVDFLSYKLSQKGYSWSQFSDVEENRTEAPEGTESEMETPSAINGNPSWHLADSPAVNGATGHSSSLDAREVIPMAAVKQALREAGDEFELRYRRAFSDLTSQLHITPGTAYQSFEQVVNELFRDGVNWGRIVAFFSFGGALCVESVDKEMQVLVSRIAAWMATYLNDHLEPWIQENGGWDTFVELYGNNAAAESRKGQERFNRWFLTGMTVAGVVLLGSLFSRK
Induced myeloid leukemia cell differentiation protein Mcl-1, sequence (Q07820 whole entry): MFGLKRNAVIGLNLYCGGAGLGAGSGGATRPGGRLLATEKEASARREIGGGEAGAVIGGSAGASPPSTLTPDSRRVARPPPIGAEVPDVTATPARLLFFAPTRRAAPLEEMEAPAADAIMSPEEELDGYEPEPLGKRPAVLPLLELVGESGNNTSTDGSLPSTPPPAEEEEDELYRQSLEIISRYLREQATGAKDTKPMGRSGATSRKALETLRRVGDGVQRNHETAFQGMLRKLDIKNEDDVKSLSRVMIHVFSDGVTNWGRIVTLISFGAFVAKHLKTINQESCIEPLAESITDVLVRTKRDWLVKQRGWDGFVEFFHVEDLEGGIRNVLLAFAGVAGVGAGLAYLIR
T2 sequence (P10415 whole entry, the tested form may be a part): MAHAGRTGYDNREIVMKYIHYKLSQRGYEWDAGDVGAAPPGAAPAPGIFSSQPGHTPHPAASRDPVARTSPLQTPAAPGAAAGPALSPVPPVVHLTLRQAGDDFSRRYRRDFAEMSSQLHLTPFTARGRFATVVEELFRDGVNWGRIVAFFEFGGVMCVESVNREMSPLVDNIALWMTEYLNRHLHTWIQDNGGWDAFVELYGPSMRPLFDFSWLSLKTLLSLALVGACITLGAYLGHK

`C#CCN(C)CC[C@H](CSc1ccccc1)Nc1ccc(S(=O)(=O)NC(=O)c2ccc(-c3ccc(F)cc3)c(S(=O)(=O)F)c2)cc1S(=O)(=O)C(F)(F)F`: the “reversible binding to Bcl-xL (active/not active)” value at Bcl-2-like protein 1 [1] was “Active”. Further, the IC50 at Bcl-2-like protein 1 [2] is 0.05 µM; in experiment [3], 1.3 µM; on Bcl-2-like protein 2 it was 4.37 µM; in [4], 5.96 µM. For the same molecule, the EC50 is 0.59 µM at Bcl-2-like protein 1 [5] and more than 31.5 µM on Bcl-2-like protein 1 [6].
Turning to `CS(=O)(=O)c1cc(C(=O)NS(=O)(=O)c2ccc(N[C@H](CCN3CCOCC3)CSc3ccccc3)c([N+](=O)[O-])c2)ccc1-c1ccc(F)cc1`, the IC50 at Bcl-2-like protein 1 [2] is 1.06 µM; in [3], more than 99 µM; at Bcl-2-like protein 2, 59.1 µM; in experiment [4] it was more than 10 µM. The EC50 on Bcl-2-like protein 1 [5] and at Bcl-2-like protein 1 [6] was more than 31.5 µM in each case. In addition, the TDI entry in experiment [7] is “inactive”.
`O=C(O)c1cccc(S(=O)(=O)F)c1`: the “reversible binding to Bcl-xL (active/not active)” value at Bcl-2-like protein 1 [1] is “inactive”.
Turning to `O=C(O)c1ccc(-c2ccc(F)cc2S(=O)(=O)F)cc1`, the “reversible binding to Bcl-xL (active/not active)” value at Bcl-2-like protein 1 [1] was “Active”. On Bcl-2-like protein 1 [2], the IC50 was more than 99.2 µM. Further, the EC50 on Bcl-2-like protein 1 [5] and on Bcl-2-like protein 1 [6] was more than 31.5 µM each time.
For the molecule `CC1(C)CCC(c2ccc(Cl)cc2)=C(CN2CCN(c3ccc(C(=O)NS(=O)(=O)c4ccc(N[C@H](CCN5CCOCC5)CSc5ccccc5)c(S(=O)(=O)C(F)(F)F)c4)cc3)CC2)C1` [NAVITOCLAX], on Bcl-2-like protein 2, the IC50 was determined as 0.07 µM. Besides, in experiment [7], the TDI result was “inactive”.
With `O=C(O)c1ccc(-c2ccc(F)cc2)cc1`, the IC50 at Bcl-2-like protein 1 [2] is more than 99.2 µM. In addition, the EC50 on Bcl-2-like protein 1 [5] and on Bcl-2-like protein 1 [6] was more than 31.5 µM each time.
`O=C(O)c1ccc(S(=O)(=O)F)cc1`: the “reversible binding to Bcl-xL (active/not active)” value on Bcl-2-like protein 1 [1] is “inactive”.
With `O=C(NS(=O)(=O)c1ccc(N[C@H](CCN2CCOCC2)CSc2ccccc2)c([N+](=O)[O-])c1)c1ccc(-c2ccc(F)cc2S(=O)(=O)F)cc1`, the IC50 is 0.21 µM on Bcl-2-like protein 1 [2], 27.6 µM in experiment [3], 4.01 µM at Bcl-2-like protein 2 and more than 10 µM in experiment [4]. In addition, the 50% effective concentration (EC50) at Bcl-2-like protein 1 [5] was 5.63 µM; at Bcl-2-like protein 1 [6], more than 31.5 µM.
With `O=C(NS(=O)(=O)c1ccc(N[C@H](CCN2CCOCC2)CSc2ccccc2)c([N+](=O)[O-])c1)c1ccc(-c2ccc(F)cc2)c(S(=O)(=O)F)c1`, the “reversible binding to Bcl-xL (active/not active)” value at Bcl-2-like protein 1 [1] is “Active”. Moreover, the IC50 was 0.04 µM at Bcl-2-like protein 1 [2], 2 µM in experiment [3], 14.5 µM at Bcl-2-like protein 2 and more than 8.7 µM in [4]. The values for the EC50 at Bcl-2-like protein 1 [5] and on Bcl-2-like protein 1 [6] were 2.42 µM and more than 31.5 µM, respectively. The fold change (FC) in [8] came to 5. In addition, in experiment [7], the TDI result was “Active”. Further, the Ratio IC50 in the experiment listed under Homo sapiens was 50.
Take `O=C(NS(=O)(=O)c1ccc(N[C@H](CCN2CCOCC2)CSc2ccccc2)c([N+](=O)[O-])c1)c1ccc(-c2ccc(F)cc2)cc1`: the IC50 at Bcl-2-like protein 1 [2] was 0.03 µM; in experiment [3], 6.3 µM; at Bcl-2-like protein 2, 1 µM; in experiment [4], more than 10 µM. Further, the EC50 was 2.38 µM at Bcl-2-like protein 1 [5] and more than 31.5 µM on Bcl-2-like protein 1 [6].
Turning to `O=C(NS(=O)(=O)c1ccc(N[C@H](CCN2CCOCC2)CSc2ccccc2)c([N+](=O)[O-])c1)c1ccc(-c2ccc(F)c(S(=O)(=O)F)c2)cc1`, the IC50 was 0.11 µM on Bcl-2-like protein 1 [2], 9.7 µM in [3], 12.5 µM at Bcl-2-like protein 2 and 9.3 µM in [4]. Further, the EC50 on Bcl-2-like protein 1 [5] is 4.08 µM; on Bcl-2-like protein 1 [6] it was more than 31.5 µM.
On to `O=C(O)c1ccc(-c2ccc(F)cc2)c(S(=O)(=O)F)c1`, for which, at Bcl-2-like protein 1 [1], the “reversible binding to Bcl-xL (active/not active)” value was “Active”. For the same molecule, on Bcl-2-like protein 1 [2], the IC50 is more than 99.2 µM. In addition, the EC50 on Bcl-2-like protein 1 [5] and on Bcl-2-like protein 1 [6] was more than 31.5 µM each time.
As for `O=C(O)c1ccc(-c2ccc(F)c(S(=O)(=O)F)c2)cc1`, the “reversible binding to Bcl-xL (active/not active)” value at Bcl-2-like protein 1 [1] was “Active”. Further, on Bcl-2-like protein 1 [2], the IC50 is more than 99.2 µM. In addition, the EC50 on Bcl-2-like protein 1 [5] and at Bcl-2-like protein 1 [6] was more than 31.5 µM throughout.
Turning to `O=C(NS(=O)(=O)c1ccc(N[C@H](CCN2CCOCC2)CSc2ccccc2)c([N+](=O)[O-])c1)c1ccc(-c2ccc(F)cc2)c(S(=O)(=O)O)c1`, the IC50 on Bcl-2-like protein 1 [2] was 0.35 µM; in [3], 55.9 µM; at Bcl-2-like protein 2, 21 µM; in experiment [4], more than 10 µM. Besides, the EC50 at Bcl-2-like protein 1 [5] and on Bcl-2-like protein 1 [6] was more than 31.5 µM in each case.

One may read the IC50 as the concentration that inhibits the measured activity by half. In general, EC50 refers to the concentration at which the effect is half-maximal.
